From patent US20190248830A1, “PROLIPOSOMAL TESTOSTERONE UNDECANOATE FORMULATIONS” (WESTERN UNIVERSITY OF HEALTH SCIENCES, priority 2016, published 2019)
Like-named read-outs stand apart in the source and are kept apart here.

Assays:
[1] = Oral PK (plasma T) of TSX-002, TSX-007, TSX-009, unformulated T and TU in female beagle dogs, fasted or fed; format: in vivo; settings: for AUC / Cmax / Tmax: female, beagle, dog, plasma, po, 7.5 mg/kg; for AUC / Cmax / Tmax / Av. AUC (plasma T) / Av. Cmax (plasma T) / Av. Tmax: oral 7.5 mg/kg; for AUC: read-out: Av. AUC (plasma T); for Cmax: read-out: Av. Cmax (plasma T); for Tmax: read-out: Av. Tmax
Experimental: In vivo pK data TSX-002 (native T:Lipid), TSX-007 (native T:Lipid:TPGS (20% w/w of T)), and TSX-009 (TU:Lipid:TPGS (20% w/w of T)). TSX-002, TSX-007, and TSX-009 formulations were orally administered to female beagle dogs under fasted or fed conditions. Fasted condition means animals were fasted overnight, dosing was performed the subsequent morning, and food was served two hours post-dosing. Animals were allowed access to food for another two hours, and monitored if they ate the food. Fed condition means animals were fasted overnight, dosing was performed the subsequent morning, and food was served 15 min. post-dosing. Animals were allowed access to food for another two hours, and monitored if they ate the food. Blood samples were taken, at 0, 0.5, 1, 2, 3, 4, 6, 8, 12 and 24 hours. The administered dosage of TU was 7.5 mg/kg (TU/body weight). Plasma samples were analyzed on Day 1 and Day 7. Pharmacokinetic data for treatment days 1 and 7, under fasting and fed conditions are reported for unformulated T in Table 2; unformulated TU in Table 3; TSX-002 (T:Lipid) in Table 4; TSX-007 (native T:Lipid:TPGS (20% w/w of T)) in Table 5; and TSX-009 (TU:Lipid:TPGS (20% w/w of T)) in Table 6.
(§1) In vivo pK data for TSX-010 (TU:Lipid, 1:1), TSX-011 (TU:Lipid, 1:2), and TSX-012 (TU:Lipid, 1:4) in female Beagle dogs. Unformulated TU, TSX-010, TSX-011, and TSX-012 formulations. In addition to tracking plasma T levels, blood samples taken by jugular vein puncture at 0, 0.5, 1, 2, 3, 4, 6, 8, 12, 24 hours, and the following pharmacokinetic (PK) parameters were analyzed for each formulation and unformulated testosterone and testosterone undecanoate. Table 18 contains PK data for unformulated testosterone and testosterone undecanoate at days 1 and 7, under fasted and fed conditions. Tables 19 and 20 contain PK data for the TSX-010, TSX-011, and TSX-012 formulations under fasted (Table 19) and fed (Table 20) conditions.

[2] = Plasma testosterone concentrations and PK after oral TSX-010, TSX-011, TSX-012 or unformulated TU in female beagle dogs; format: in vivo; settings: TU 7.5 mg/kg
Experimental: Plasma testosterone concentrations after administration of TSX-010 (TU:Lipid, 1:1), TSX-011 (TU:Lipid, 1:2), and TSX-012 (TU:Lipid, 1:4). Unformulated TU, TSX-010, TSX-011, and TSX-012 formulations were orally administered under either fasted or fed conditions. The fasted condition means animals were fasted overnight, dosing was performed the subsequent morning, and food was served two hours post-dosing. Animals were allowed access to food for another two hours, and monitored if they ate the food. The fed condition means animals were fasted overnight, dosing was performed the subsequent morning, and food was served 15 min. post-dosing. Animals were allowed access to food for another two hours, and monitored if they ate the food. For unformulated TU, blood samples were taken by venipuncture of the jugular vein at 0, 0.5, 1, 2, 3, 4, 6, 8, 12, and 24 hours in both fed and fasted conditions. For TU formulations like TSX-010, TSX-011, TSX-012, blood samples were taken by venipuncture of the jugular vein at 0, 4, 6, 8, 10, 12, 14, 16, 18 and 24 hours in fasted conditions and at 0, 1, 2, 4, 6, 8, 10, 12, 16 and 24 hours in fed conditions in femalebeagle dogs. The administered dosages of TU were either 1.875, 3.75, or 7.5 mg/kg (TU/body weight). Plasma testosterone concentration data, was obtained at day 1 for formulations TSX-010, TSX-011, and TSX-012, and days 1 and 7, for unformulated TU.
as §1

C[C@]12CC[C@H]3[C@@H](CCC4=CC(=O)CC[C@@]43C)[C@@H]1CC[C@@H]2O [Unformulated T, testosterone]
AUC ([1]; day 1, fasted): 28.7 ± 9.44 ng·h/mL
Cmax ([1]; day 1, fasted): 6.39 ± 2.47 ng/mL
Tmax ([1]; day 1, fasted): 2.17 ± 0.98 h
AUC ([1]; day 1, fed): 36.8 ± 19.4 ng·h/mL
Cmax ([1]; day 1, fed): 9.85 ± 5.8 ng/mL
Tmax ([1]; day 1, fed): 3.67 ± 2.58 h
AUC ([1]; day 7, fasted): 11.2 ± 3.28 ng·h/mL
Cmax ([1]; day 7, fasted): 2.7 ± 0.78 ng/mL
Tmax ([1]; day 7, fasted): 2.5 ± 1.22 h
AUC ([1]; day 7, fed): 43 ± 43.9 ng·h/mL
Cmax ([1]; day 7, fed): 13 ± 13.6 ng/mL
Tmax ([1]; day 7, fed): 3.5 ± 4.42 h

CCCCCCCCCCC(=O)O[C@H]1CC[C@H]2[C@@H]3CCC4=CC(=O)CC[C@]4(C)[C@H]3CC[C@]12C [Unformulated TU, testosterone undecanoate]
Plasma profiles on Day 7 ([1]; Day 7, compared to responders to proliposomal TU formulations): plasma profiles dropped significantly
Increase in AUC and Cmax in the presence of food ([1]; fed compared to fasted state): two-fold increase in AUC and Cmax
Av. AUC (plasma T) ([1]; day 1, fasted): 16.63 ± 27.15 ng·h/mL
Av. Cmax (plasma T) ([1]; day 1, fasted): 2.34 ± 3.94 ng/mL
Av. Tmax ([1]; day 1, fasted): 6.50 ± 4.43 h
Av. AUC (plasma T) ([1]; day 1, fed): 108.41 ± 42.73 ng·h/mL
Av. Cmax (plasma T) ([1]; day 1, fed): 33.83 ± 5.06 ng/mL
Av. Tmax ([1]; day 1, fed): 4.0 ± 1.55 h
Av. AUC (plasma T) ([1]; day 7, fasted): 30.88 ± 35.98 ng·h/mL
Av. Cmax (plasma T) ([1]; day 7, fasted): 4.38 ± 5.12 ng/mL
Av. Tmax ([1]; day 7, fasted): 8.0 ± 5.66 h
Av. AUC (plasma T) ([1]; day 7, fed): 20.50 ± 16.59 ng·h/mL
Av. Cmax (plasma T) ([1]; day 7, fed): 5.37 ± 3.78 ng/mL
Av. Tmax ([1]; day 7, fed): 4.17 ± 3.25 h
Animals with plasma T > 0.5 ng/mL, percent ([2]; fasted, day 1): (33.3%)
Animals with plasma T > 0.5 ng/mL (responders/treated) ([2]; fasted, day 1, within 24 h): 2/6
Animals with plasma T > 0.5 ng/mL, percent ([2]; fasted, day 7): (50%)
Animals with plasma T > 0.5 ng/mL (responders/treated) ([2]; fasted, day 7, within 24 h): 3/6
Animals with plasma T > 0.5 ng/mL, percent ([2]; fed, day 1): (100%)
Animals with plasma T > 0.5 ng/mL (responders/treated) ([2]; fed, day 1, within 24 h): 6/6
Animals with plasma T > 0.5 ng/mL, percent ([2]; fed, day 7): (100%)
Animals with plasma T > 0.5 ng/mL (responders/treated) ([2]; fed, day 7, within 24 h): 5/6
